# Measurements as given in patent publication US8883010B2, “Polymer composition with phytochemical and dialysis membrane formed from the polymer composition” (The University of Akron, priority 2008, dated 2014).
# Entries after “also recorded” stand apart in the source; their conditions may differ.
# Assays:
# [1] = system: reactive oxygen species (ROS) in neutrophils; assay: Modified DHR (dihydrorhodamine) assay of oxygen radical generation in PMA-stimulated whole blood; format: cell-based, human; conditions: for suppression of ROS levels (in words): pure antioxidant in DMSO, no membrane/polymer, 25-500 μg/ml
# Experimental: In order to determine the effect of membranes and/or genistein on oxygen radical generation, the standard dihydrorhodamine (DHR) assay was modified as follows. The assay consisted of one positive control tube, several sample tubes and one negative control tube. The positive control tube contained 100 μl blood, 25 μl DHR, and 25 μl PMA; the total contents were made up to a total volume of 1 ml with PBS. The effect of oxygen radical generation is tested as follows, using the sample tube containing 100 μl blood, 25 μl DHR, 25 μl PMA and the appropriate sample (for example, unmodified membranes or pure genistein or genistein modified membranes). […] For the assay, two small circular samples (2×0.4 cm^2) were punched out from the cast films and placed inside the test tubes. After adding the membrane, the entire contents were incubated at 37° C. for 3 h (to simulate hemodialysis conditions) while being subjected to continuous shaking. After 3 h of incubation, the membrane samples were removed from the blood and agitated with 1 ml of PBS in order to dislodge the cells that were attached to the membrane. In the case of pure genistein (i.e., no membrane), the samples were prepared by dissolving genistein in DMSO over a wide range of concentration (25-500 μg/ml). The negative control tube contained 100 μl blood, 25 μl DHR, and the sample.
# In order to normalize the data obtained from different set of experiments, the following formula was employed to express ROS level in percentage,
# where the positive control represent 100% ROS and the negative control represent 0% ROS. The x, y, and z parameters represent the mean fluorescence signal obtained from the positive control, the negative control, and the samples, respectively.
# [2] = system: peripheral blood mononuclear cells (PBMC); assay: Cell viability (cytotoxicity) assay with 7-AAD dye and flow cytometry; format: cell-based; conditions: pure genistein, 25-500 μg/ml
# Experimental: Cell viability assays were conducted to determine the effect of unmodified membranes, pure genistein and genistein modified membranes on whole blood. A nucleic acid dye, 7-Amino-actinomycin D (7-AAD), (BD-Via-Probe™ from BD Bioscience, CA) was used as a viability probe, which is based on uptake of 7-AAD. 7-AAD is a nucleic acid dye, which is designed in such a way that it cannot enter live cells. Fresh blood mixed with the dye was used as a negative control, whereas blood incubated with the membrane and/or genistein served as the experimental samples.
# To perform the assays, 100 μl of fresh blood was pipetted into separate polypropylene tubes and mixed with 2 ml of ammonium chloride lysis buffer solution (containing 8.26 g ammonium chloride, 1 g potassium bicarbonate, and 0.037 g ethylenediamine-tetraacetic acid dissolved in 1 liter deionized water). The tubes were allowed to stand at room temperature for 10 min during which most of the red blood cells were lysed. The tubes were centrifuged at room temperature for 5 min at 1,800 rpm. […] The cells were resuspended with 500 μl of PBS and the cell suspension was analyzed using a flow cytometer (EPICS® XL-MCL™, Beckman Coulter, Calif., USA) equipped with System II™ software. […] The fluorescence signal from the dead cells was measured on the FL3 red channel (650 nm) with the flow cytometer.
Molecule,suppression of ROS levels (in words) [1],"reduction of the oxygen radicals ([1]; pure genistein in DMSO, no membrane)",cytotoxicity to PBMC [2]
"O=c1c(-c2ccc(O)cc2)coc2cc(O)cc(O)c12 [genistein, 5,7-dihydroxy-3-(4-hydroxyphenyl)chromen-4-one]",dose-dependent reduction of ROS level; also recorded: suppress ROS levels significantly; also recorded: Suppression is greater than for Vitamin E,about 50%,non-cytotoxic
Vitamin E,Suppression is greater than for Vitamin E,,
